Patent US9738634B2, “Heterocyclic amide compound and herbicide” (SYNGENTA PARTICIPATIONS AG, priority 2013, dated 2017)

Legend:
Format in all cases: in vivo
[1] = system: transplanted rice; experiment: Test Example 1: preemergent weed treatment in the submerged state, effect on crop; a: transplanted rice
Procedure, shortened: (§1)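 Pre-emergence application onto floodwater (4 cm, alluvial soil) on the day of sowing, dose expressed as g/ha from diluted emulsion formulation. Weeds sown with 2.5-leaf transplanted rice as crop; plants held at 25–30 °C in greenhouse and scored against assessment criteria after 3 weeks.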

[2] = system: oval-leafed pondweed; experiment: Test Example 1: weedkilling efficacy, preemergent weed treatment in the submerged state; C: oval-leafed pondweed
Procedure, shortened: as §1

[3] = system: barnyard grass; experiment: Test Example 1: weedkilling efficacy, preemergent weed treatment in the submerged state; A: barnyard grass
Procedure, shortened: as §1

[4] = system: oval-leafed pondweed; experiment: Test Example 2: weedkilling efficacy, growth period weed treatment in the submerged state; C: oval-leafed pondweed
Procedure, shortened: (§2)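 Weeds treated at the 1-2 leaf stage by application of diluted emulsion onto floodwater (4 cm depth, alluvial soil) at specified g/ha. Grown in greenhouse at 25 to 30° C; herbicidal effect rated three weeks after treatment.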

[5] = system: bulrush; experiment: Test Example 2: weedkilling efficacy, growth period weed treatment in the submerged state; B: bulrush
Procedure, shortened: as §2

[6] = system: barnyard grass; experiment: Test Example 2: weedkilling efficacy, growth period weed treatment in the submerged state; A: barnyard grass
Procedure, shortened: as §2

[7] = system: bulrush; experiment: Test Example 1: weedkilling efficacy, preemergent weed treatment in the submerged state; B: bulrush
Procedure, shortened: as §1

Compound | C (oval-leafed pondweed) weedkilling efficacy grade ([4]; treatment dosage 252 g/ha) | B (bulrush) weedkilling efficacy grade ([5]; treatment dosage 252 g/ha) | A (barnyard grass) weedkilling efficacy grade ([6]; treatment dosage 252 g/ha) | a: transplanted rice, effect on crop grade ([1]; treatment dosage 320 g/ha) | C: oval-leafed pondweed, weed kill grade ([2]; treatment dosage 320 g/ha) | A: barnyard grass, weed kill grade ([3]; treatment dosage 320 g/ha) | C (oval-leafed pondweed) weedkilling efficacy grade ([4]; treatment dosage 320 g/ha) | B (bulrush) weedkilling efficacy grade ([5]; treatment dosage 320 g/ha) | A (barnyard grass) weedkilling efficacy grade ([6]; treatment dosage 320 g/ha) | B: bulrush, weed kill grade ([7]; treatment dosage 320 g/ha) | also measured
CC(C)(C(=O)Nc1cccc(C2CC2)n1)N1COCN(c2ccccc2)C1=O [A-2-46] | 0 (weed kill ratio 5% or less (practically no effect)) | 2 (weed kill ratio 20% or more, less than 40%) | 4 (weed kill ratio 70% or more, less than 90%) |  |  |  |  |  |  |  | a: transplanted rice, effect on crop grade ([1]; treatment dosage 252 g/ha): 1 (weed kill ratio 5% or more, less than 20%); C: oval-leafed pondweed, weed kill grade ([2]; treatment dosage 252 g/ha): 3 (weed kill ratio 40% or more, less than 70%); A: barnyard grass, weed kill grade ([3]; treatment dosage 252 g/ha): 5 (weed kill ratio 90% or more, (practically complete withering)); B: bulrush, weed kill grade ([7]; treatment dosage 252 g/ha): 4 (weed kill ratio 70% or more, less than 90%)
CC(C)(C(=O)Nc1cccc(C(F)F)n1)N1COCN(c2ccccc2)C1=O [A-2-41] |  |  |  |  |  |  |  |  |  |  | a: transplanted rice, effect on crop grade ([1]; treatment dosage 315 g/ha): 0 (weed kill ratio 5% or less (practically no effect)); C: oval-leafed pondweed, weed kill grade ([2]; treatment dosage 315 g/ha): 5 (weed kill ratio 90% or more, (practically complete withering)); A: barnyard grass, weed kill grade ([3]; treatment dosage 315 g/ha): 5 (weed kill ratio 90% or more, (practically complete withering)); C (oval-leafed pondweed) weedkilling efficacy grade ([4]; treatment dosage 315 g/ha): 5 (weed kill ratio 90% or more, (practically complete withering)); B (bulrush) weedkilling efficacy grade ([5]; treatment dosage 315 g/ha): 5 (weed kill ratio 90% or more, (practically complete withering)); A (barnyard grass) weedkilling efficacy grade ([6]; treatment dosage 315 g/ha): 5 (weed kill ratio 90% or more, (practically complete withering)); B: bulrush, weed kill grade ([7]; treatment dosage 315 g/ha): 5 (weed kill ratio 90% or more, (practically complete withering))
O=C1N(c2ccccc2)COCN1C1(C(=O)Nc2cc(Cl)cc(Cl)n2)CC1 [A-7-04] |  |  |  |  |  |  |  |  |  |  | a: transplanted rice, effect on crop grade ([1]; treatment dosage 1000 g/ha): 0 (weed kill ratio 5% or less (practically no effect)); C: oval-leafed pondweed, weed kill grade ([2]; treatment dosage 1000 g/ha): 0 (weed kill ratio 5% or less (practically no effect)); A: barnyard grass, weed kill grade ([3]; treatment dosage 1000 g/ha): 0 (weed kill ratio 5% or less (practically no effect)); C (oval-leafed pondweed) weedkilling efficacy grade ([4]; treatment dosage 1000 g/ha): 0 (weed kill ratio 5% or less (practically no effect)); B (bulrush) weedkilling efficacy grade ([5]; treatment dosage 1000 g/ha): 1 (weed kill ratio 5% or more, less than 20%); A (barnyard grass) weedkilling efficacy grade ([6]; treatment dosage 1000 g/ha): 0 (weed kill ratio 5% or less (practically no effect)); B: bulrush, weed kill grade ([7]; treatment dosage 1000 g/ha): 5 (weed kill ratio 90% or more, (practically complete withering))
CC(C)(C(=O)Nc1cc(Cl)cc(Cl)n1)N1COCN(c2ccccc2)C1=O [A-2-17] | 5 (weed kill ratio 90% or more, (practically complete withering)) | 5 (weed kill ratio 90% or more, (practically complete withering)) | 5 (weed kill ratio 90% or more, (practically complete withering)) |  |  |  |  |  |  |  | a: transplanted rice, effect on crop grade ([1]; treatment dosage 252 g/ha): 3 (weed kill ratio 40% or more, less than 70%); C: oval-leafed pondweed, weed kill grade ([2]; treatment dosage 252 g/ha): 5 (weed kill ratio 90% or more, (practically complete withering)); A: barnyard grass, weed kill grade ([3]; treatment dosage 252 g/ha): 5 (weed kill ratio 90% or more, (practically complete withering)); B: bulrush, weed kill grade ([7]; treatment dosage 252 g/ha): 5 (weed kill ratio 90% or more, (practically complete withering))
CC(C)(C(=O)Nc1cc(-c2ccsc2)ccn1)N1COCN(c2ccccc2)C1=O [A-5-01] |  |  |  | 0 (weed kill ratio 5% or less (practically no effect)) | 5 (weed kill ratio 90% or more, (practically complete withering)) | 4 (weed kill ratio 70% or more, less than 90%) | 4 (weed kill ratio 70% or more, less than 90%) | 4 (weed kill ratio 70% or more, less than 90%) | 4 (weed kill ratio 70% or more, less than 90%) | 5 (weed kill ratio 90% or more, (practically complete withering)) | 
Cc1cc(NC(=O)C(C)(C)N2COCN(c3ccccc3)C2=O)nc(C(F)(F)F)c1 [A-2-57] |  |  |  | 0 (weed kill ratio 5% or less (practically no effect)) | 5 (weed kill ratio 90% or more, (practically complete withering)) | 5 (weed kill ratio 90% or more, (practically complete withering)) | 5 (weed kill ratio 90% or more, (practically complete withering)) | 5 (weed kill ratio 90% or more, (practically complete withering)) | 5 (weed kill ratio 90% or more, (practically complete withering)) | 5 (weed kill ratio 90% or more, (practically complete withering)) | 
CC1=C(c2cccnc2F)C(=O)N(C(C)(C)C(=O)Nc2cccc(Br)n2)CO1 [B-2-10] |  |  |  |  |  |  | 5 (weed kill ratio 90% or more, (practically complete withering)) | 5 (weed kill ratio 90% or more, (practically complete withering)) | 5 (weed kill ratio 90% or more, (practically complete withering)) |  | a (transplanted rice) effect on crop grade ([1]; treatment dosage 320 g/ha): 1 (weed kill ratio 5% or more, less than 20%); C (oval-leafed pondweed) weedkilling efficacy grade ([2]; treatment dosage 320 g/ha): 5 (weed kill ratio 90% or more, (practically complete withering)); A (barnyard grass) weedkilling efficacy grade ([3]; treatment dosage 320 g/ha): 5 (weed kill ratio 90% or more, (practically complete withering)); B (bulrush) weedkilling efficacy grade ([7]; treatment dosage 320 g/ha): 5 (weed kill ratio 90% or more, (practically complete withering))
Cn1ccc(NC(=O)C(C)(C)N2COCN(c3ccccc3)C2=O)n1 [A-1-03] |  |  |  | 0 (weed kill ratio 5% or less (practically no effect)) | 2 (weed kill ratio 20% or more, less than 40%) | 0 (weed kill ratio 5% or less (practically no effect)) | 0 (weed kill ratio 5% or less (practically no effect)) | 2 (weed kill ratio 20% or more, less than 40%) | 0 (weed kill ratio 5% or less (practically no effect)) | 5 (weed kill ratio 90% or more, (practically complete withering)) | 
CC(C)(C(=O)Nc1cc(C(F)(F)F)ccn1)N1COCN(c2ccc(Cl)c(Cl)c2)C1=O [A-6-03] |  |  |  | 0 (weed kill ratio 5% or less (practically no effect)) | 0 (weed kill ratio 5% or less (practically no effect)) | 3 (weed kill ratio 40% or more, less than 70%) | 0 (weed kill ratio 5% or less (practically no effect)) | 2 (weed kill ratio 20% or more, less than 40%) | 0 (weed kill ratio 5% or less (practically no effect)) | 5 (weed kill ratio 90% or more, (practically complete withering)) | 
CC1=C(c2ccccc2)C(=O)N(C(C)(C)C(=O)Nc2cc(-c3ccccc3)ccn2)CO1 [B-2-59] | 0 (weed kill ratio 5% or less (practically no effect)) | 1 (weed kill ratio 5% or more, less than 20%) | 0 (weed kill ratio 5% or less (practically no effect)) |  |  |  |  |  |  |  | a (transplanted rice) effect on crop grade ([1]; treatment dosage 252 g/ha): 0 (weed kill ratio 5% or less (practically no effect)); C (oval-leafed pondweed) weedkilling efficacy grade ([2]; treatment dosage 252 g/ha): 2 (weed kill ratio 20% or more, less than 40%); A (barnyard grass) weedkilling efficacy grade ([3]; treatment dosage 252 g/ha): 2 (weed kill ratio 20% or more, less than 40%); B (bulrush) weedkilling efficacy grade ([7]; treatment dosage 252 g/ha): 4 (weed kill ratio 70% or more, less than 90%)
CC1=C(c2ccccc2)C(=O)N(C(C)(C)C(=O)Nc2nnc(-c3ccccc3)s2)CO1 [B-1-11] | 3 (weed kill ratio 40% or more, less than 70%) | 4 (weed kill ratio 70% or more, less than 90%) | 1 (weed kill ratio 5% or more, less than 20%) |  |  |  |  |  |  |  | a (transplanted rice) effect on crop grade ([1]; treatment dosage 252 g/ha): 0 (weed kill ratio 5% or less (practically no effect)); C (oval-leafed pondweed) weedkilling efficacy grade ([2]; treatment dosage 252 g/ha): 5 (weed kill ratio 90% or more, (practically complete withering)); A (barnyard grass) weedkilling efficacy grade ([3]; treatment dosage 252 g/ha): 4 (weed kill ratio 70% or more, less than 90%); B (bulrush) weedkilling efficacy grade ([7]; treatment dosage 252 g/ha): 5 (weed kill ratio 90% or more, (practically complete withering))
CC(C)(C(=O)Nc1cc(C#N)ccn1)N1COCN(c2ccccc2)C1=O [A-2-48] | 5 (weed kill ratio 90% or more, (practically complete withering)) | 5 (weed kill ratio 90% or more, (practically complete withering)) | 4 (weed kill ratio 70% or more, less than 90%) |  |  |  |  |  |  |  | a: transplanted rice, effect on crop grade ([1]; treatment dosage 252 g/ha): 0 (weed kill ratio 5% or less (practically no effect)); C: oval-leafed pondweed, weed kill grade ([2]; treatment dosage 252 g/ha): 5 (weed kill ratio 90% or more, (practically complete withering)); A: barnyard grass, weed kill grade ([3]; treatment dosage 252 g/ha): 5 (weed kill ratio 90% or more, (practically complete withering)); B: bulrush, weed kill grade ([7]; treatment dosage 252 g/ha): 5 (weed kill ratio 90% or more, (practically complete withering))
CC(C(=O)Nc1cc(Cl)cc(Cl)n1)N1COCN(c2ccccc2)C1=O (racemic) [A-7-01] |  |  |  |  |  |  |  |  |  |  | a: transplanted rice, effect on crop grade ([1]; treatment dosage 1000 g/ha): 0 (weed kill ratio 5% or less (practically no effect)); C: oval-leafed pondweed, weed kill grade ([2]; treatment dosage 1000 g/ha): 4 (weed kill ratio 70% or more, less than 90%); A: barnyard grass, weed kill grade ([3]; treatment dosage 1000 g/ha): 5 (weed kill ratio 90% or more, (practically complete withering)); C (oval-leafed pondweed) weedkilling efficacy grade ([4]; treatment dosage 1000 g/ha): 1 (weed kill ratio 5% or more, less than 20%); B (bulrush) weedkilling efficacy grade ([5]; treatment dosage 1000 g/ha): 5 (weed kill ratio 90% or more, (practically complete withering)); A (barnyard grass) weedkilling efficacy grade ([6]; treatment dosage 1000 g/ha): 3 (weed kill ratio 40% or more, less than 70%); B: bulrush, weed kill grade ([7]; treatment dosage 1000 g/ha): 5 (weed kill ratio 90% or more, (practically complete withering))
